Test results taken from ChEMBL document CHEMBL1201861, “Genomics of Drug Sensitity in Cancer screening data, Wellcome Trust Sanger Institute”.

Key:
Experiment in all cases: cells
Calu-6 = format: functional, cell-based, Homo sapiens; conditions: Homo sapiens, Calu-6;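 note: growth of human Calu-6 cells, read out by a cell viability assay, IC50 marking inhibition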
Description: SANGER: Inhibition of human Calu-6 cell growth in a cell viability assay.

SK-UT-1 = format: functional, cell-based, Homo sapiens; conditions: Homo sapiens, SK-UT-1;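 note: growth inhibition of SK-UT-1 cells, measured by a cell viability assay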
Description: SANGER: Inhibition of human SK-UT-1 cell growth in a cell viability assay.

RPMI-8226 = format: functional, cell-based, Homo sapiens; conditions: Homo sapiens, RPMI-8226
Description: SANGER: Inhibition of human RPMI-8226 cell growth in a cell viability assay.

NCI-H1581 = format: functional, cell-based, Homo sapiens; conditions: Homo sapiens, NCI-H1581;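 note: cell growth inhibition read out by a viability assay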
Description: SANGER: Inhibition of human NCI-H1581 cell growth in a cell viability assay.

A3-KAW = format: functional, cell-based, Homo sapiens; conditions: Homo sapiens, A3-KAW;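 note: growth inhibition of human A3-KAW cells, read out with a cell viability assay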
Description: SANGER: Inhibition of human A3-KAW cell growth in a cell viability assay.

NB13 = format: functional, cell-based, Homo sapiens; conditions: Homo sapiens, NB13;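 note: cell viability readout measuring growth inhibition of human NB13 cells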
Description: SANGER: Inhibition of human NB13 cell growth in a cell viability assay.

A253 cell line = format: functional, cell-based, Homo sapiens; conditions: Homo sapiens, A253;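 note: growth inhibition of A253 cells, read out with a cell viability assay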
Description: SANGER: Inhibition of human A253 cell growth in a cell viability assay.

NCI-H1838 = format: functional, cell-based, Homo sapiens; conditions: Homo sapiens, NCI-H1838;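 note: growth inhibition of NCI-H1838 cells, determined with a cell viability readout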
Description: SANGER: Inhibition of human NCI-H1838 cell growth in a cell viability assay.

CW-2 = format: functional, cell-based, Homo sapiens; conditions: Homo sapiens, CW-2;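 note: growth inhibition of CW-2 cells, read out by a cell viability assay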
Description: SANGER: Inhibition of human CW-2 cell growth in a cell viability assay.

NMC-G1 = format: functional, cell-based, Homo sapiens; conditions: Homo sapiens, NMC-G1;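 note: growth inhibition of the NMC-G1 cell line, measured with a cell viability read-out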
Description: SANGER: Inhibition of human NMC-G1 cell growth in a cell viability assay.

GCIY = format: functional, cell-based, Homo sapiens; conditions: Homo sapiens, GCIY;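 note: growth inhibition of the human GCIY cell line, read out by a cell viability assay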
Description: SANGER: Inhibition of human GCIY cell growth in a cell viability assay.

LNCaP-Clone-FGC = format: functional, cell-based, Homo sapiens; conditions: Homo sapiens, LNCaP-Clone-FGC
Description: SANGER: Inhibition of human LNCaP-Clone-FGC cell growth in a cell viability assay.

NKM-1 = format: functional, cell-based, Homo sapiens; conditions: Homo sapiens, NKM-1;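 note: growth inhibition of NKM-1 cells, read out with a cell viability assay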
Description: SANGER: Inhibition of human NKM-1 cell growth in a cell viability assay.

NCI-H2126 = format: functional, cell-based, Homo sapiens; conditions: Homo sapiens, NCI-H2126;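 note: growth inhibition of the cancer cell line, determined with a cell viability readout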
Description: SANGER: Inhibition of human NCI-H2126 cell growth in a cell viability assay.

NCI-H747 = format: functional, cell-based, Homo sapiens; conditions: Homo sapiens, NCI-H747;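 note: growth inhibition of human NCI-H747 cells, read out by a cell viability assay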
Description: SANGER: Inhibition of human NCI-H747 cell growth in a cell viability assay.

SK-LMS-1 = format: functional, cell-based, Homo sapiens; conditions: Homo sapiens, SK-LMS-1;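 note: growth inhibition of human SK-LMS-1 cells, read out with a cell viability assay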
Description: SANGER: Inhibition of human SK-LMS-1 cell growth in a cell viability assay.

GT3TKB = format: functional, cell-based, Homo sapiens; conditions: Homo sapiens, GT3TKB;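 note: growth inhibition of the cell line, read out with a cell viability assay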
Description: SANGER: Inhibition of human GT3TKB cell growth in a cell viability assay.

KS-1 = format: functional, cell-based; conditions: Homo sapiens;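 note: growth inhibition of KS-1 cells, read out with a cell viability assay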
Description: SANGER: Inhibition of human KS-1 cell growth in a cell viability assay.

HOP-62 = format: functional, cell-based, Homo sapiens; conditions: Homo sapiens, HOP-62;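 note: cell growth inhibition determined with a viability assay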
Description: SANGER: Inhibition of human HOP-62 cell growth in a cell viability assay.

LB2518-MEL = format: functional, cell-based; conditions: Homo sapiens;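 note: growth inhibition of human LB2518-MEL cells, measured with a cell viability assay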
Description: SANGER: Inhibition of human LB2518-MEL cell growth in a cell viability assay.

ALL-PO = format: functional, cell-based, Homo sapiens; conditions: Homo sapiens, ALL-PO;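 note: growth inhibition of ALL-PO cells, read out by a cell viability assay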
Description: SANGER: Inhibition of human ALL-PO cell growth in a cell viability assay.

KINGS-1 = format: functional, cell-based, Homo sapiens; conditions: Homo sapiens, KINGS-1;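 note: cell viability assay measuring suppression of KINGS-1 cell growth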
Description: SANGER: Inhibition of human KINGS-1 cell growth in a cell viability assay.

MN-60 = format: functional, cell-based, Homo sapiens; conditions: Homo sapiens, MN-60;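 note: growth inhibition of the MN-60 cell line, determined with a cell viability assay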
Description: SANGER: Inhibition of human MN-60 cell growth in a cell viability assay.

TE-6 = format: functional, cell-based, Homo sapiens; conditions: Homo sapiens, TE-6;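 note: growth inhibition of TE-6 cells, read out with a cell viability assay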
Description: SANGER: Inhibition of human TE-6 cell growth in a cell viability assay.

D-502MG = format: functional, cell-based, Homo sapiens; conditions: Homo sapiens, D-502MG
Description: SANGER: Inhibition of human D-502MG cell growth in a cell viability assay.

GOTO = format: functional, cell-based, Homo sapiens; conditions: Homo sapiens, GOTO;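 note: growth inhibition of GOTO cells, read out by a cell viability assay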
Description: SANGER: Inhibition of human GOTO cell growth in a cell viability assay.

OMC-1 = format: functional, cell-based, Homo sapiens; conditions: Homo sapiens, OMC-1;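 note: growth inhibition of the OMC-1 cell line, measured by a cell viability assay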
Description: SANGER: Inhibition of human OMC-1 cell growth in a cell viability assay.

NCI-H446 = format: functional, cell-based, Homo sapiens; conditions: Homo sapiens, NCI-H446;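 note: growth inhibition of NCI-H446 cells determined by a cell viability assay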
Description: SANGER: Inhibition of human NCI-H446 cell growth in a cell viability assay.

TGW = format: functional, cell-based, Homo sapiens; conditions: Homo sapiens, TGW;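 note: growth inhibition of human TGW cells, read out with a cell viability assay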
Description: SANGER: Inhibition of human TGW cell growth in a cell viability assay.

EW-1 = format: functional, cell-based, Homo sapiens; conditions: Homo sapiens, EW-1;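 note: growth inhibition of the human EW-1 cell line, read out by a cell viability assay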
Description: SANGER: Inhibition of human EW-1 cell growth in a cell viability assay.

HT-144 = format: functional, cell-based, Homo sapiens; conditions: Homo sapiens, HT-144
Description: SANGER: Inhibition of human HT-144 cell growth in a cell viability assay.

KARPAS-299 = format: functional, cell-based, Homo sapiens; conditions: Homo sapiens, KARPAS-299
Description: SANGER: Inhibition of human KARPAS-299 cell growth in a cell viability assay.

COLO-320-HSR = format: functional, cell-based, Homo sapiens; conditions: Homo sapiens, COLO-320-HSR;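 note: growth inhibition of COLO-320-HSR cells, determined with a cell viability assay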
Description: SANGER: Inhibition of human COLO-320-HSR cell growth in a cell viability assay.

KURAMOCHI = format: functional, cell-based, Homo sapiens; conditions: Homo sapiens, KURAMOCHI;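 note: growth inhibition of KURAMOCHI cells, read out with a cell viability assay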
Description: SANGER: Inhibition of human KURAMOCHI cell growth in a cell viability assay.

LB996-RCC = format: functional, cell-based, Homo sapiens; conditions: Homo sapiens, LB996-RCC
Description: SANGER: Inhibition of human LB996-RCC cell growth in a cell viability assay.

EKVX = format: functional, cell-based, Homo sapiens; conditions: Homo sapiens, EKVX;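 note: growth inhibition of human EKVX cells, read out with a cell viability assay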
Description: SANGER: Inhibition of human EKVX cell growth in a cell viability assay.

HL-60 = format: functional, cell-based, Homo sapiens; conditions: Homo sapiens, HL-60;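 note: growth inhibition of human HL-60 cells, read out with a cell viability assay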
Description: SANGER: Inhibition of human HL-60 cell growth in a cell viability assay.

NCI-H1304 = format: functional, cell-based, Homo sapiens; conditions: Homo sapiens, NCI-H1304;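 note: growth inhibition of the cancer cell line, measured in a cell viability assay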
Description: SANGER: Inhibition of human NCI-H1304 cell growth in a cell viability assay.

TE-1 = format: functional, cell-based, Homo sapiens; conditions: Homo sapiens, TE-1;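 note: growth inhibition of the human TE-1 cell line, read out with a cell viability assay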
Description: SANGER: Inhibition of human TE-1 cell growth in a cell viability assay.

NOMO-1 = format: functional, cell-based, Homo sapiens; conditions: Homo sapiens, NOMO-1;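 note: growth inhibition of human NOMO-1 cells measured by a cell viability assay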
Description: SANGER: Inhibition of human NOMO-1 cell growth in a cell viability assay.

HD-MY-Z = format: functional, cell-based, Homo sapiens; conditions: Homo sapiens, HD-MY-Z;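 note: growth inhibition of HD-MY-Z cells, read out with a cell viability assay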
Description: SANGER: Inhibition of human HD-MY-Z cell growth in a cell viability assay.

MLMA = format: functional, cell-based, Homo sapiens; conditions: Homo sapiens, MLMA;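 note: growth inhibition of MLMA cells (human), determined through a cell viability readout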
Description: SANGER: Inhibition of human MLMA cell growth in a cell viability assay.

AM-38 = format: functional, cell-based, Homo sapiens; conditions: Homo sapiens, AM-38;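 note: growth inhibition of AM-38 cells of human origin, read out by a cell viability assay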
Description: SANGER: Inhibition of human AM-38 cell growth in a cell viability assay.

DSH1 = format: functional, cell-based; conditions: Homo sapiens;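 note: growth inhibition of human DSH1 cells, measured with a cell viability readout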
Description: SANGER: Inhibition of human DSH1 cell growth in a cell viability assay.

OS-RC-2 = format: functional, cell-based, Homo sapiens; conditions: Homo sapiens, OS-RC-2;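 note: growth inhibition of human OS-RC-2 cells, measured by a cell viability assay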
Description: SANGER: Inhibition of human OS-RC-2 cell growth in a cell viability assay.

KM-H2 = format: functional, cell-based, Homo sapiens; conditions: Homo sapiens, KM-H2;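 note: growth inhibition of KM-H2 cells, read out by a cell viability assay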
Description: SANGER: Inhibition of human KM-H2 cell growth in a cell viability assay.

MHH-PREB-1 = format: functional, cell-based, Homo sapiens; conditions: Homo sapiens, MHH-PREB-1;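 note: cell viability assay measuring inhibition of proliferation of human MHH-PREB-1 cells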
Description: SANGER: Inhibition of human MHH-PREB-1 cell growth in a cell viability assay.

LB2241-RCC = format: functional, cell-based, Homo sapiens; conditions: Homo sapiens, LB2241-RCC;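 note: cell viability assay measuring how strongly the cultured human renal carcinoma line is prevented from growing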
Description: SANGER: Inhibition of human LB2241-RCC cell growth in a cell viability assay.

Structure (SMILES): CC(C)C[C@H](NC(=O)[C@H](Cc1ccccc1)NC(=O)c1cnccn1)B(O)O [BORTEZOMIB]
- IC50 (Calu-6): 1.29 nM
- IC50 (SK-UT-1): 0.163 nM
- IC50 (RPMI-8226): 2.35 nM
- IC50 (NCI-H1581): 12.3 nM
- IC50 (A3-KAW): 1.28 nM
- IC50 (NB13): 2 nM
- IC50 (A253 cell line): 0.208 nM
- IC50 (NCI-H1838): > 20 nM
- IC50 (CW-2): 3.21 nM
- IC50 (NMC-G1): 3.68 nM
- IC50 (GCIY): 1.62 nM
- IC50 (LNCaP-Clone-FGC): > 20 nM
- IC50 (NKM-1): 2 nM
- IC50 (NCI-H2126): 1.8 nM
- IC50 (NCI-H747): 0.539 nM
- IC50 (SK-LMS-1): 0.854 nM
- IC50 (GT3TKB): 2.12 nM
- IC50 (KS-1): 0.34 nM
- IC50 (HOP-62): 0.647 nM
- IC50 (LB2518-MEL): 0.425 nM
- IC50 (ALL-PO): > 20 nM
- IC50 (KINGS-1): 0.722 nM
- IC50 (MN-60): 8.14 nM
- IC50 (TE-6): > 20 nM
- IC50 (D-502MG): 6.37 nM
- IC50 (GOTO): 17.1 nM
- IC50 (OMC-1): 4.18 nM
- IC50 (NCI-H446): > 20 nM
- IC50 (TGW): 16.5 nM
- IC50 (EW-1): 5.31 nM
- IC50 (HT-144): 0.576 nM
- IC50 (KARPAS-299): 3.06 nM
- IC50 (COLO-320-HSR): 3.92 nM
- IC50 (KURAMOCHI): 1.72 nM
- IC50 (LB996-RCC): 3.4 nM
- IC50 (EKVX): 2.14 nM
- IC50 (HL-60): 4.67 nM
- IC50 (NCI-H1304): > 20 nM
- IC50 (TE-1): 1.03 nM
- IC50 (NOMO-1): 4.33 nM
- IC50 (HD-MY-Z): 3.93 nM
- IC50 (MLMA): 8.85 nM
- IC50 (AM-38): > 20 nM
- IC50 (DSH1): 0.48 nM
- IC50 (OS-RC-2): 0.44 nM
- IC50 (KM-H2): > 20 nM
- IC50 (MHH-PREB-1): 4.86 nM
- IC50 (LB2241-RCC): 0.804 nM
